What was measured:
human iNKT cells = test: In vitro expansion of human iNKT cells from PBMC (FACS with 6B11 and anti-CD3); type: cell-based; settings: 100 nM glycolipid, IL-2 and IL-7, day 7
Procedure: Figure S3. Responses of human iNKT cells to Th2 cell-type cytokine biasing […]
(A) For in vitro expansion of iNKT cells, 2 million human PBMC per well in 96 well plates were stimulated with 100 nM of glycolipids in the presence of IL-2 (60 IU/ml) and IL-7 (5 ng/ml). At day 7, cultures were harvested and analyzed by FACS using 6B11 (specific for the TCRα chain of iNKT cells) and anti-CD3 mAbs. Significant expansion of human […]
all glycolipids with the exception of OCH. Similar results were obtained in three independent experiments from 6 different donors.
(B) Cytokine production by a CD4+ human iNKT clone (HDD11) stimulated with human monocyte-derived dendritic cells pulsed with αGalCer analogues. For in vitro activation of human iNKT cells, 5 x 10^4 cloned iNKT cells per well were stimulated with 2.5 x104 […]

mCD1d = biological target: T1, mCD1d (Mus musculus, UniProt P11609); test: mAb L363 staining of αGalCer-mCD1d complexes on cultured mouse splenocytes; type: cell-based; settings: 100 nM glycolipid, 1 hr or 19 hr
T1 construct: host or cells: JAWS II (C57BL/6.Trp53-/- derived dendritic cell line)
T1 sequence (P11609 22-336): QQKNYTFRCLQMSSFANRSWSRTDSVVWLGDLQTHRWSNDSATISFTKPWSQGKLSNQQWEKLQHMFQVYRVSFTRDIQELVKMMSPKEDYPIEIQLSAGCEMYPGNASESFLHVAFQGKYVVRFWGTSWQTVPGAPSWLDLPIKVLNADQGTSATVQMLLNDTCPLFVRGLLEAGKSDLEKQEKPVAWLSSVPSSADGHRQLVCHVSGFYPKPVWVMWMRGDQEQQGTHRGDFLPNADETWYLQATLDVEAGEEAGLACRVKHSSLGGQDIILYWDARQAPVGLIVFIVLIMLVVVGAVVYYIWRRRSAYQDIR
T1 sequence (P01887 21-119 partner): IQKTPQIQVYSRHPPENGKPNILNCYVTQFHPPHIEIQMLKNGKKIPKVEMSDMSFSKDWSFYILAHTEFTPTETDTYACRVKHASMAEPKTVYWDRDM
Procedure: We studied this possibility directly by using a monoclonal antibody (L363) that specifically recognizes complexes of αGalCer bound to mCD1d ([Yu et al., 2007]). Mouse splenocytes were cultured with either αGalCer-C26:0 or representative Th2 cell-type cytokine-biasing analogs, and L363 staining was assessed on various cell types (Figure 3A). […] This was investigated further with more detailed kinetic studies in which immortalized mouse DC line JAWS II was cultured with each glycolipid and assessed for L363 surface staining at 0.5, 4, and 18 hr (Figure 3B). […]
Figure 3 Direct Analysis of Presentation of αGalCer Analogs with Complex-Specific mAb Staining (A) Mouse splenocytes cultured with either vehicle only (0.02% DMSO) or with the indicated αGalCer analogs (100 nM) were harvested after 1 hr or 19 hr of incubation and stained with mAb L363 or anti-CD1d mAb 1B1 and with mAbs specific for CD11c, CD19, and F4/80 (Figure S4). […] (B) JAWS II cells were incubated with glycolipids (250 nM) for various times ranging from 0.5–18 hr as indicated, stained with mAb L363, and analyzed by flow cytometry. […]
Recombinant CD1d proteins were produced and assembled into tetramers for staining as previously described ([Forestier et al., 2007]). […] All samples were analyzed with the FACSCalibur flow cytometer (BD Biosciences). […]

Row | SMILES | expansion of human iNKT cells (percentage of total viable lymphocytes) (human iNKT cells) | L363 staining of splenocyte populations (mCD1d)
1 | CCCCCCCCCCCCCCCCCCCCCCCC(=O)NC(COC1OC(CO)C(O)C(O)C1O)C(O)C(O)CCCCC (centres unmarked) [OCH] | exception | 
2 | CCCCCCCCCCCCCCC(O)C(O)C(COC1OC(CO)C(O)C(O)C1O)NC(=O)CCCCCCCCC (centres unmarked) [αGalCer-C10:0] |  | extremely early appearance of L363 staining

— PMC2719696, “Kinetics and Cellular Site of Glycolipid Loading Control the Outcome of Natural Killer T Cell Activation” (Immunity, 2009)
